From patent publication US8822503B2, “2-pyridone compounds” (Taisho Pharmaceutical Co., Ltd, priority 2009, dated 2014)

Biological target: T1, human liver GK (Homo sapiens, UniProt P35557)
T1 construct: GST (glutathione S-transferase) (N); made in house; host or cells: E. coli
T1 sequence (P35557 1-466 isoform P35557-2): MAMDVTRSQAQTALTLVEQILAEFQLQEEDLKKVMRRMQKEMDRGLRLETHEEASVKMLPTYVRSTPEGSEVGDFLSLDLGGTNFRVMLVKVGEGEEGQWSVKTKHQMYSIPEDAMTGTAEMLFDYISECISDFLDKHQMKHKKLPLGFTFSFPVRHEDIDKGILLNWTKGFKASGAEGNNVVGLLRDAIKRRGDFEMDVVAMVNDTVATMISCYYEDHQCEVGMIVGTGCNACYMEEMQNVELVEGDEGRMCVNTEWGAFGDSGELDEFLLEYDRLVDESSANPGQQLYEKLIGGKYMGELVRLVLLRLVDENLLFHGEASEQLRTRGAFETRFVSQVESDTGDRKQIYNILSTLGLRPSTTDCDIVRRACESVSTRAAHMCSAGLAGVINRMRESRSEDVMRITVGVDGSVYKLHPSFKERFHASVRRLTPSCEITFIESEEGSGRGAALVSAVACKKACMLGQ
Experiment: GK activation test
Format: biochemical
Details: test compound concentration needed to activate 50% of maximum activation ability; 4 mM 14C-labeled glucose, 2 mM ATP, room temperature, 20 minutes
Method in brief: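 GST-tagged human liver GK from E. coli (0.24 μg/well) with 4 mM 14C-glucose, 2 mM ATP in Hepes-KOH pH 7.1, KCl, MgCl2, DTT, 1% DMSO, 20 min room temperature. Labeled glucose 6-phosphate captured on anion resin, eluted and counted. EC50 = concentration giving half of maximal activation.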

| SMILES | EC50 |
| --- | --- |
| O=C1CC[C@H](/C=C(\c2ccc(S(=O)(=O)C3CC3)cc2)c2ccc(C3CC3)c(=O)[nH]2)N1 [Example 4-290, 3-Cyclopropyl-6-{(E)-1-[4-(cyclopropylsulfonyl)phenyl]-2-[(2R)-5-oxopyrrolidin-2-yl]ethenyl}pyridin-2(1H)-one] | 10 to 500 nM |
| CC(C)(C)c1ccc(/C(=C\[C@H]2CCC(=O)N2)c2ccc(Oc3ccc(Cl)cc3)c(=O)[nH]2)cc1 [Example 4-188, 6-{(E)-1-(4-tert-Butylphenyl)-2-[(2R)-5-oxopyrrolidin-2-yl]ethenyl}-3-(4-chlorophenoxy)pyridin-2(1H)-one] | 500 to 3000 nM |
| CCc1ccc(C(CC2CCCC2)c2ccc(S(C)(=O)=O)cc2)[nH]c1=O (stereo not drawn) [Example 2-7, 6-{2-Cyclopentyl-1-[4-(methylsulfonyl)phenyl]ethyl}-3-ethylpyridin-2(1H)-one] | 500 to 3000 nM |
| O=c1[nH]c(/C(=C/C2CCCC2)c2ccc(S(=O)(=O)C3CC3)cc2)ccc1Cl [Example 1-104, 3-Chloro-6-{(E)-2-cyclopentyl-1-[4-(cyclopropylsulfonyl)phenyl]ethenyl}pyridin-2(1H)-one] | 10 to 500 nM |
| CC(C)(C)c1ccc(/C(=C\[C@H]2CCC(=O)N2)c2ccc(Oc3ccc(C(F)(F)F)cc3)c(=O)[nH]2)cc1 [Example 4-189, 6-{(E)-1-(4-tert-Butylphenyl)-2-[(2R)-5-oxopyrrolidin-2-yl]ethenyl}-3-[4-(trifluoromethyl)phenoxy]pyridin-2(1H)-one] | 500 to 3000 nM |
| CSc1ccc(/C(=C\[C@H]2CCN(C(C)=O)C2)c2ccc(C3CC3)c(=O)[nH]2)cc1 [Example 4-39, 6-{(E)-2-[(3R)-1-Acetylpyrrolidin-3-yl]-1-[4-(methylsulfanyl)phenyl]ethenyl}-3-cyclopropylpyridin-2(1H)-one] | 10 to 500 nM |
| CCc1ccc(/C(=C/C2CCCC2)c2ccc(SCCCO)cc2)[nH]c1=O [Example 1-12, 6-[(E)-2-Cyclopentyl-1-{4-[(3-hydroxypropyl)sulfanyl]phenyl}ethenyl]-3-ethylpyridin-2(1H)-one] | 10 to 500 nM |
| CN1CCN(S(=O)(=O)c2ccc(/C(=C\C3CCCC3)c3ccc(Cl)c(=O)[nH]3)cc2)CC1 [Example 1-46, 3-Chloro-6-[(E)-2-cyclopentyl-1-{4-[(4-methylpiperazin-1-yl)sulfonyl]phenyl}ethenyl]pyridin-2(1H)-one] | 500 to 3000 nM |
| Cc1cc(C(C[C@H]2CCC(=O)N2)c2ccc(C3CC3)c(=O)[nH]2)ccc1Cl (single isomer, unassigned) [Example 4-214] | 3000 to 10000 nM |
| CCN(CC)CCCSc1ccc(/C(=C\[C@H]2CCC(=O)C2)c2ccc(C(F)(F)F)c(=O)[nH]2)cc1Cl [Example 1-84, 6-{(E)-1-(3-Chloro-4-{[3-(diethylamino)propyl]sulfanyl}phenyl)-2-[(1S)-3-oxocyclopentyl]ethenyl}-3-(trifluoromethyl)pyridin-2(1H)-one] | 500 to 3000 nM |
| O=C1CC[C@H](/C=C(\c2ccc(Oc3ccccc3)cc2)c2ccc(Cl)c(=O)[nH]2)N1 [Example 4-152, 3-Chloro-6-[(E)-2-[(2R)-5-oxopyrrolidin-2-yl]-1-(4-phenoxyphenyl)ethenyl]pyridin-2(1H)-one] | 10 to 500 nM |
| O=C1CC[C@H](/C=C(\c2ccc(OC(F)F)cc2)c2ccc(C3CC3)c(=O)[nH]2)N1 [Example 4-127, 3-Cyclopropyl-6-{(E)-1-[4-(difluoromethoxy)phenyl]-2-[(2R)-5-oxopyrrolidin-2-yl]ethenyl}pyridin-2(1H)-one] | 10 to 500 nM |
| O=C1CC[C@H](/C=C(\c2ccc(C3CC3)cc2)c2ccc(C3CC3)c(=O)[nH]2)N1 [Example 4-268, 3-Cyclopropyl-6-{(E)-1-(4-cyclopropylphenyl)-2-[(2R)-5-oxopyrrolidin-2-yl]ethenyl}pyridin-2(1H)-one] | 10 to 500 nM |
| CCOc1ccc(/C(=C\[C@H]2CCC(=O)N2)c2ccc(Cl)c(=O)[nH]2)cc1F [Example 4-49, 3-Chloro-6-{(E)-1-(4-ethoxy-3-fluorophenyl)-2-[(2R)-5-oxopyrrolidin-2-yl]ethenyl}pyridin-2(1H)-one] | 500 to 3000 nM |
| Cc1ccc(/C(=C/[C@H]2CCC(=O)C2)c2ccc(S(=O)(=O)CCCO)c(Cl)c2)[nH]c1=O [Example 1-74, 6-{(E)-1-{3-Chloro-4-[(3-hydroxypropyl)sulfonyl]phenyl}-2-[(1S)-3-oxocyclopentyl]ethenyl}-3-methylpyridin-2(1H)-one] | 500 to 3000 nM |
| O=c1[nH]c(/C(=C/C2CCOCC2)c2ccc(N3CCOCC3)cc2)ccc1Cl [Example 1-111, 3-Chloro-6-[(E)-1-[4-(morpholin-4-yl)phenyl]-2-(tetrahydro-2H-pyran-4-yl)ethenyl]pyridin-2(1H)-one] | 3000 to 10000 nM |
| CC(C)(C)c1ccc(/C(=C\[C@H]2CCC(=O)N2)c2ccc(-c3cccnc3)c(=O)[nH]2)cc1 [Example 4-180, 6-{(E)-1-(4-tert-Butylphenyl)-2-[(2R)-5-oxopyrrolidin-2-yl]ethenyl}-3,3′-bipyridin-2(1H)-one] | 10 to 500 nM |
| O=c1[nH]c(/C(=C/C2CCOCC2)c2ccc(S(=O)(=O)C3CC3)cc2)ccc1Cl [Example 1-110, 3-Chloro-6-[(E)-1-[4-(cyclopropylsulfonyl)phenyl]-2-(tetrahydro-2H-pyran-4-yl)ethenyl]pyridin-2(1H)-one] | 500 to 3000 nM |
| CCc1ccc(/C(=C\[C@H]2CCC(=O)N2)c2ccc(C3CC3)c(=O)[nH]2)cc1Cl [Example 4-271, 6-{(E)-1-(3-Chloro-4-ethylphenyl)-2-[(2R)-5-oxopyrrolidin-2-yl]ethenyl}-3-cyclopropylpyridin-2(1H)-one] | 10 to 500 nM |
| O=C1CC[C@H](CC(c2ccc(F)c(Cl)c2)c2ccc(C3CC3)c(=O)[nH]2)N1 (single isomer, unassigned) [Example 4-211] | 500 to 3000 nM |
| CC(C)c1ccc(/C(=C\CN2CCOC2=O)c2ccc(Cl)c(=O)[nH]2)cc1 [Example 6-22, 3-Chloro-6-{(1E)-3-(2-oxo-1,3-oxazolidin-3-yl)-1-[4-(propan-2-yl)phenyl]prop-1-en-1-yl}pyridin-2(1H)-one] | 500 to 3000 nM |

Now from value to molecule:

| EC50 | SMILES |
| --- | --- |
| 10 to 500 nM | CC(C)(C)c1ccc(/C(=C\[C@H]2CCC(=O)N2)c2ccc(Cl)c(=O)[nH]2)c(O)c1 [Example 4-162, 6-{(E)-1-(4-tert-Butyl-2-hydroxyphenyl)-2-[(2R)-5-oxopyrrolidin-2-yl]ethenyl}-3-chloropyridin-2(1H)-one] |
| 10 to 500 nM | CCc1cc(/C(=C\[C@H]2CCC(=O)N2)c2ccc(C3CC3)c(=O)[nH]2)ccc1Cl [Example 4-125, 6-{(E)-1-(4-Chloro-3-ethylphenyl)-2-[(2R)-5-oxopyrrolidin-2-yl]ethenyl}-3-cyclopropylpyridin-2(1H)-one] |
| 3000 to 10000 nM | CCN(CC)CCCNc1ccc(/C(=C\C2CCCC2)c2ccc(C(F)(F)F)c(=O)[nH]2)cc1 [Example 1-43, 6-[(E)-2-Cyclopentyl-1-(4-{[3-(diethylamino)propyl]amino}phenyl)ethenyl]-3-(trifluoromethyl)pyridin-2(1H)-one] |
| 10 to 500 nM | O=C1CC[C@H](/C=C(\c2ccc(SC3CC3)cc2)c2ccc(Cl)c(=O)[nH]2)N1 [Example 4-37, 3-Chloro-6-{(E)-1-[4-(cyclopropylsulfanyl)phenyl]-2-[(2R)-5-oxopyrrolidin-2-yl]ethenyl}pyridin-2(1H)-one] |
| 10 to 500 nM | O=C1CC[C@H](/C=C(\c2ccc(C(F)F)c(F)c2)c2ccc(C3CC3)c(=O)[nH]2)N1 [Example 4-131, 3-Cyclopropyl-6-{(E)-1-[4-(difluoromethyl)-3-fluorophenyl]-2-[(2R)-5-oxopyrrolidin-2-yl]ethenyl}pyridin-2(1H)-one] |
| 3000 to 10000 nM | CS(=O)(=O)c1ccc(C/C(=C\C2CCOCC2)c2ccc(Cl)c(=O)[nH]2)cc1 [Example 1-113, 3-Chloro-6-[(1E)-3-[4-(methylsulfonyl)phenyl]-1-(tetrahydro-2H-pyran-4-yl)prop-1-en-2-yl]pyridin-2(1H)-one] |
| 10 to 500 nM | CCc1ccc(C(C[C@H]2CCC(=O)N2)c2ccc(C3CC3)c(=O)[nH]2)cc1Cl (single isomer, unassigned) [Example 4-336] |
| 500 to 3000 nM | O=c1[nH]c(/C(=C/C2CCCC2)c2ccc(S(=O)(=O)CCCO)cc2)ccc1C(F)(F)F [Example 1-40, 6-[(E)-2-Cyclopentyl-1-{4-[(3-hydroxypropyl)sulfonyl]phenyl}ethenyl]-3-(trifluoromethyl)pyridin-2(1H)-one] |
| 500 to 3000 nM | CCc1ccc(C(C[C@H]2CCC(=O)N2)c2ccc(C3CC3)c(=O)[nH]2)cc1Cl (single isomer, unassigned) [Example 4-337] |
| 3000 to 10000 nM | CCOc1ccc(C(C[C@H]2CCC(=O)N2)c2ccc(Cl)c(=O)[nH]2)cc1C (single isomer, unassigned) [Example 4-240] |
| 500 to 3000 nM | Cc1ccc(/C(=C/[C@H]2CCC(=O)C2)c2ccc(S(C)(=O)=O)c(Cl)c2)[nH]c1=O [Example 1-68, 6-{(E)-1-[3-Chloro-4-(methylsulfonyl)phenyl]-2-[(1S)-3-oxocyclopentyl]ethenyl}-3-methylpyridin-2(1H)-one] |
| 500 to 3000 nM | COc1ccc(/C(=C\[C@H]2CC[C@@H](O)CC2)c2ccc(C3CC3)c(=O)[nH]2)cc1Cl [Example 1-88, 6-[(E)-1-(3-Chloro-4-methoxyphenyl)-2-(cis-4-hydroxycyclohexyl)ethenyl]-3-cyclopropylpyridin-2(1H)-one] |
